Patent US20230192608A1, “WATER-SOLUBLE, MODIFIED AMINO ACID DERIVATIVES FOR TREATMENT OF NEUROLOGICAL DISEASES, AND SELECTED PSYCHIATRIC DISORDERS” (Uniwersytet Jagiellonski, priority 2020, published 2023)
Marks after values point to notes of the source that are not given here.

What was measured:
[1] = test system: male white Swiss mice (CD-1); settings: model AED, comparison; cited from earlier work
[2] = test system: male white Swiss mice (CD-1); settings: model AED, comparison; cited from earlier work; remark: listed apart in the source
[3] = test system: male white Swiss mice (CD-1); assay: Anticonvulsant screening summarised over MES, scPTZ and 6 Hz (32 mA) models; format: in vivo; settings: screening data of Table 3, 100 mg/kg intraperitoneal
Protocol: (§1) The studies were carried out on male white Swiss mice (CD-1) weighing 18-26 g. All procedures were performed in accordance with the applicable Polish and international guidelines for the ethics of animal research, after obtaining of the appropriate institutional consent. […] Screening tests were performed in groups consisted of 4 mice. All tests were performed according to the procedures described in the specialist literature: maximal electroshock test (MES) (Kamiński et al. Bioorg. Med. Chem. 2015, 23, 2548-2561; Castel-Branco et al. Pharmacol. 2009, 31, 101-106, Riban et al. Neurosci. 2002, 112, 101-111); psychomotor seizure test (6 Hz, 32 mA) (Barton et al. Epilepsy Res. 2001, 47, 217-227; Wojda et al. Epilepsy Res. 2009, 86, 163-174); subcutaneous pentylenetetrazole test (scPTZ) (Ferreri et al. Pharmacol. Biochem. Behav. 2004, 77, 85-94).
These models are recognized as the most important and widely used pharmacological tests allowing the identification of candidates for new antiepileptic drugs. […] This is crucial in situations requiring immediate intervention to stop seizures, including, e.g status epilpepticus, which is considered as a life-threatening situation.

[4] = test system: male white Swiss mice (CD-1); assay: Maximal electroshock test (MES), screening; format: in vivo; settings: 100 mg/kg intraperitoneal, time point 0.5 h
Protocol: as §1

[5] = test system: male white Swiss mice (CD-1); assay: Psychomotor seizure test (6 Hz, 32 mA), screening; format: in vivo; settings: 100 mg/kg intraperitoneal, time point 0.5 h
Protocol: as §1

[6] = test system: male white Swiss mice (CD-1); assay: Subcutaneous pentylenetetrazole test (scPTZ), screening; format: in vivo; settings: 100 mg/kg intraperitoneal, time point 0.5 h
Protocol: as §1

[7] = Water solubility test at 25° C. per 1 gram of compound (European Pharmacopoeia 10.0 / Polish Pharmacopoeia XII); settings: for The volume of water required for dissolution of 1 g of the substance at 25° C.: 1 g of compound, maximum volume of water used 100 mL; for Matching term (solubility in water, pharmacopoeial terminology): European Pharmacopoeia 10.0 / Polish Pharmacopoeia XII

SMILES | Activity in MES test (in words) [1] | Activity in scPTZ test (in words) [2] | Anticonvulsant activity (in words) [3] | MES: number of mice protected/number of mice tested [4] | 6 Hz (32 mA): number of mice protected/number of mice tested [5] | scPTZ: number of mice protected/number of mice tested [6] | The volume of water required for dissolution of 1 g of the substance at 25° C. [7] | Matching term (solubility in water, pharmacopoeial terminology) [7]
CC[C@@H](C(N)=O)N1CCCC1=O [levetiracetam] | inactive | inactive |  |  |  |  |  | 
C[C@H](C(=O)NCc1ccccc1)N1C(=O)CC(N(C)C)C1=O.Cl (stereo partly drawn) [Compound (2R)-5 × HCl, (2R)-N-benzyl-2-(3-(dimethylamino)-2,5-dioxopyrrolidin-1-yl)propanamide hydrochloride] |  |  | potent anticonvulsant activity |  |  |  |  | 
CC(C(=O)NCc1ccccc1F)N1CCCC1=O [(2R,S)-4, (2R,S)-N-(2-fluorobenzyl)-2-(2-oxopyrrolidin-1-yl)propanamide] |  |  |  | 3/4 | 3/4 | 2/4 | 30 mL | Soluble
CC(C(=O)NCc1ccccc1)N1C(=O)CCC1=O (racemic) [(2R,S)-1, reference compound] |  |  |  | 3/4 | 3/4 | 2/4 | >100^c mL | Slightly soluble
CC(C(=O)NCc1ccccc1)N1C(=O)CC(N(C)C)C1=O (stereo not shown) [Compound 5, N-benzyl-2-(3-(dimethylamino)-2,5-dioxopyrrolidin-1-yl)propanamide] |  |  |  |  |  |  |  | substances easily soluble in water
C[C@H](C(=O)NCc1ccccc1F)N1C(=O)CC(N(C)C)C1=O.Cl (stereo partly drawn) [Compound (2R)-6 × HCl, (2R)-2-(3-(dimethylamino)-2,5-dioxopyrrolidin-1-yl)-N-(2-fluorobenzyl)propanamide hydrochloride] |  |  | potent anticonvulsant activity |  |  |  |  | 
C[C@@H](C(=O)NCc1ccccc1)N1CCCC1=O [Compound (2S)-3, (2S)-N-benzyl-2-(2-oxopyrrolidin-1-yl)propanamide] |  |  |  | 2/4 | 2/4 | 2/4 | 25 mL | Soluble
C[C@H](C(=O)NCc1ccccc1F)N1C(=O)CCC1=O [(2R)-2, reference compound] |  |  |  | 4/4 | 4/4 | 3/4 | >100^c mL | Slightly soluble
C[C@@H](C(=O)NCc1ccccc1F)N1CCCC1=O [Compound (2S)-4, (2S)-N-(2-fluorobenzyl)-2-(2-oxopyrrolidin-1-yl)propanamide] |  |  |  | 2/4 | 2/4 | 2/4 | 30 mL | Soluble
CC(C(=O)NCc1ccccc1)N1CCCC1=O (stereo not shown) [Compound 3, N-benzyl-2-(2-oxopyrrolidin-1-yl)propanamide] |  |  |  |  |  |  |  | water-soluble substances
CC(C(=O)NCc1ccccc1F)N1C(=O)CCC1=O (racemic) [(2R,S)-2, reference compound] |  |  |  | 3/4 | 3/4 | 3/4 | >100^c mL | Slightly soluble
CC(C(=O)NCc1ccccc1F)N1C(=O)CC(N(C)C)C1=O (stereo not shown) [Compound 6] |  |  |  |  |  |  |  | substances easily soluble in water
C[C@@H](C(=O)NCc1ccccc1)N1C(=O)CCC1=O [(2S)-1, reference compound] |  |  |  | 1/4 | 4/4 | 2/4 | >100^c mL | Slightly soluble
C[C@@H](C(=O)NCc1ccccc1F)N1C(=O)CCC1=O [(2S)-2, reference compound] |  |  |  | 2/4 | 2/4 | 2/4 | >100^c mL | Slightly soluble
C[C@H](C(=O)NCc1ccccc1)N1C(=O)CCC1=O [(2R)-1, reference compound] |  |  |  | 3/4 | 4/4 | 3/4 | >100^c mL | Slightly soluble
CC(C(=O)NCc1ccccc1)N1CCCC1=O [Compound (2R,S)-3, (2R,S)-N-benzyl-2-(2-oxopyrrolidin-1-yl)propanamide] |  |  |  | 3/4 | 4/4 | 2/4 | 25 mL | Soluble
CC(C(=O)NCc1ccccc1F)N1CCCC1=O (stereo not shown) [Compound 4, N-(2-fluorobenzyl)-2-(2-oxopyrrolidin-1-yl)propanamide] |  |  |  |  |  |  |  | water-soluble substances
C[C@H](C(=O)NCc1ccccc1F)N1CCCC1=O [Compound (2R)-4, (2R)-N-(2-fluorobenzyl)-2-(2-oxopyrrolidin-1-yl)propanamide] |  |  | potent anticonvulsant activity | 4/4 | 4/4 | 3/4 | 30 mL | Soluble
C[C@H](C(=O)NCc1ccccc1)N1CCCC1=O [Compound (2R)-3, (2R)-N-benzyl-2-(2-oxopyrrolidin-1-yl)propanamide] |  |  | potent anticonvulsant activity | 4/4 | 4/4 | 3/4 | 25 mL | Soluble
